Test in all cases: NCI-60 cell line screen, 48 h
In assay [1] the test system is SF-268 CNS.
The test system of assay [2] is CCRF-CEM leukemia.
The test system of assay [3] is NCI-H522 lung.
The subject of assay [4] is NCI-H226 lung.
The test system of assay [5] is SNB-75 CNS.
Assay [6] deals with HCT-15 colon.
Assay [7] concerns EKVX NSCLC.
Assay [8] deals with NCI-H460 lung.
Assay [9] deals with SF-295 CNS.
Assay [10] concerns SR leukemia.

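How tested: cells in 96-well plates exposed to compound for 48 hours at five concentrations. GI50 marks 50% less growth. TGI: concentration producing complete growth inhibition.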

With `COc1ccc2cc(-c3c(-c4ccncc4)nc(-c4ccc(S(C)=O)cc4C)n3C)ccc2c1` (stereo unspecified), the GI50 was over 25 µM in assay [1]; over 25 µM in assay [2]; 10.6 µM in assay [3]; over 20.5 µM in assay [4]; over 20.8 µM in assay [5]; 16.7 µM in assay [6]. Besides, the figures for the GI50 in assay [7], in [8] and in [9] were 8.34 µM, 24.6 µM and 16.6 µM, respectively. The TGI in [1], in [2], in assay [3], in assay [4], in assay [5] and in assay [6] was over 25 µM each time. In addition, the TGI in assay [7], in assay [8] and in [9] was over 25 µM each time.
Regarding `NC(N)=N/N=C/c1c(-c2ccc(Cl)c([N+](=O)[O-])c2)nc2n1CCS2`, the GI50 in assay [1] is 16.1 µM; in assay [2] it was 2.6 µM; in assay [3], 35.6 µM; in assay [4], 4.24 µM; in assay [5], 16 µM; in assay [6], 23.1 µM. The results for the GI50 in assay [7], in assay [8] and in assay [9] were 12.7 µM, 11.6 µM and 7 µM, respectively. The TGI in assay [1] was 40 µM; in [2], 9.93 µM; in assay [3], over 100 µM; in [4] it was 24 µM; in [5], 37.9 µM; in assay [6], 67.3 µM. In addition, the TGI is 26.3 µM in [7], over 100 µM in [8] and 20.8 µM in assay [9].
Regarding `Cc1cc(=O)oc2cc(OCCn3c(C)nn(-c4ccc(Cl)cc4)c3=O)ccc12`, the GI50 in [10] was 0.497 µM; in assay [1] it was 13.6 µM; in assay [3] it was 3.85 µM; in assay [5] it was 2.22 µM; in [6], 3.2 µM; in [7], over 100 µM. Also, the GI50 in assay [8] is 2.8 µM; in assay [9], 4.73 µM. In addition, the TGI is 6.67 µM in assay [10]; over 100 µM in [1]; 33.2 µM in assay [3]; 15.1 µM in assay [5]; over 100 µM in assay [6]; over 100 µM in assay [7]. In addition, the TGI in assay [8] and in assay [9] was over 100 µM throughout.
`COc1ccc2c(c1)nc1n2C(c2ccc(F)cc2)SC1` (stereo unspecified): the GI50 in assay [1] is 33.8 µM; in [2] it was 25.9 µM; in assay [3], 18.1 µM; in [4] it was 19.1 µM; in [5] it was 25.6 µM; in assay [6] it was 19.7 µM. Besides, the results for the GI50 in assay [7], in [8] and in [9] were 21.8 µM, 16.1 µM and 27.9 µM, respectively. Also, the TGI in [1] was over 100 µM; in assay [2], over 100 µM; in assay [3], 66.3 µM; in assay [4], 54.1 µM; in assay [5], over 100 µM; in assay [6], 42.8 µM. The values for the TGI in assay [7], in assay [8] and in assay [9] were 61.9 µM, 67.7 µM and over 100 µM, respectively.
Turning to `C[C@@]12CCCC(=O)N1[C@@H](CO)C(c1ccccc1)O2` (stereo partly specified), the TGI in assay [1], in [5], in [6], in assay [7], in assay [8] and in [9] was over 100 µM in each case.
Regarding `CC1(C)C2CCC13C(=O)C1OC3(C2)C2C(=O)c3c(O)cccc3C(=O)C12` (stereo unspecified), the GI50 is 3.06 µM in assay [1]; 0.212 µM in assay [2]; 3.2 µM in assay [3]; 7.68 µM in assay [4]; 7.28 µM in assay [5]; 0.362 µM in [6]. For the same molecule, the GI50 in assay [7] is 8.37 µM; in assay [8], 3.75 µM; in assay [9], 0.156 µM. The TGI in assay [1] is 15.3 µM; in assay [2], 1.14 µM; in [3] it was 10.1 µM; in [4], 23.8 µM; in assay [5] it was 22.3 µM; in assay [6], 0.905 µM. In addition, the TGI in assay [7] was 21.4 µM; in assay [8], 21.2 µM; in [9], 0.442 µM.
In the case of `COc1ccc(C2ONC3=NCCN32)cc1` (stereo unspecified), the GI50 in assay [1] is 70.5 µM; in [2] it was 26.6 µM; in [3], over 100 µM; in [4], 61.4 µM; in assay [5], over 100 µM; in [6] it was 29.2 µM. Further, the GI50 is over 100 µM in assay [7], 50.8 µM in [8] and 93.4 µM in assay [9]. For the same molecule, the TGI was over 100 µM in [1]; 61.7 µM in assay [2]; over 100 µM in assay [3]; over 100 µM in [4]; over 100 µM in assay [5]; over 100 µM in [6]. In addition, the TGI in [7], in assay [8] and in assay [9] was over 100 µM throughout.
Consider `CC(=O)OCCC(O[Si](c1ccccc1)(c1ccccc1)C(C)(C)C)C(C)(C)O` (stereo unspecified), for which the TGI in assay [1] was over 100 µM; in [2], 67.6 µM; in assay [3] it was 46.8 µM; in assay [4] it was 36 µM; in assay [5] it was over 100 µM; in [6] it was over 100 µM. The TGI was over 100 µM in assay [7], over 100 µM in assay [8] and 45.6 µM in assay [9].
For `c1cnc2[nH]cc(-c3csc(-c4cn(CCCN5CCCCC5)c5ccccc45)n3)c2c1`, the GI50 was 1.89 µM in assay [10]; 1.56 µM in assay [1]; 1.21 µM in [5]; 1.72 µM in [6]; 1.65 µM in assay [9]. The TGI in assay [10] worked out at 3.74 µM; in assay [1] it was 3.19 µM; in assay [5] it was 2.84 µM; in assay [6], 3.18 µM; in assay [9], 3.18 µM.

The values above are taken from PubChem BioAssay (NCI).
